Assay [1] deals with T1, Alpha-1D adrenergic receptor (Homo sapiens, UniProt P25100).
T1 sequence (P25100 whole entry): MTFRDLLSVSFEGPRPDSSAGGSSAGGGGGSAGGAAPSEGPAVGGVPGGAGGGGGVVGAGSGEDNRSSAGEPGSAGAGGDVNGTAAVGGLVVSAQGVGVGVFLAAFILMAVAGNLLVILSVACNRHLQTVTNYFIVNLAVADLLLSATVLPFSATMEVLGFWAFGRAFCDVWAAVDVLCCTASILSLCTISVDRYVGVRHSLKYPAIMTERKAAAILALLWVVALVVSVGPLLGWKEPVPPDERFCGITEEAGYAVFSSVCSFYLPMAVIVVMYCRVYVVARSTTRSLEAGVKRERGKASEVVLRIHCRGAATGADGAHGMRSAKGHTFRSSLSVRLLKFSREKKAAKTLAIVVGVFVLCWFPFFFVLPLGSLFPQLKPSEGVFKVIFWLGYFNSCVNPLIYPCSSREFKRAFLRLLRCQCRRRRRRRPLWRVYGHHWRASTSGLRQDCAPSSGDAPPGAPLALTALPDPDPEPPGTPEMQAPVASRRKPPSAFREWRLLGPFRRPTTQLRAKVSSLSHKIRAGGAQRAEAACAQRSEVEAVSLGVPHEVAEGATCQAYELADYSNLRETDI
Description: Selectivity interaction (GPCR panel (PDSP screen)) EUB0000746a ADRA1D.

For assay [2], the target named is D(3) dopamine receptor (Homo sapiens, UniProt P35462). The assay is described as follows: Selectivity interaction (GPCR panel (PDSP screen)) EUB0000746a DRD3.
Assay [3] addresses Calcium/calmodulin-dependent protein kinase type 1B (Homo sapiens, UniProt Q6P2M8). The assay is described as follows: Selectivity interaction (KinomeScan (DiscoverX)) EUB0000746a PNCK. Conditions: at 1 µM.
Assay [4] deals with T2, Mitogen-activated protein kinase 12 (Homo sapiens) (UniProt P53778).
T2 sequence (whole entry): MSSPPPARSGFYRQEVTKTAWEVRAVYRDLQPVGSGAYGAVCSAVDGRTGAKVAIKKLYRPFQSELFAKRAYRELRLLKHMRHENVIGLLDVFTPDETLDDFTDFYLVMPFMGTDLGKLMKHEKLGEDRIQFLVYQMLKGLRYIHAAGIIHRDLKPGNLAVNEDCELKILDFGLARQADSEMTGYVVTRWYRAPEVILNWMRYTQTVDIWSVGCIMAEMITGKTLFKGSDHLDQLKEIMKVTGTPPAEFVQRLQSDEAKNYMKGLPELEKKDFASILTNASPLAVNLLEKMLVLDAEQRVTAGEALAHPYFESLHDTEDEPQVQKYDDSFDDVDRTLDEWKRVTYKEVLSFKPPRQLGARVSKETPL
Description: Selectivity interaction (KinomeScan (DiscoverX)) EUB0000746a MAPK12. Conditions: at 1 µM.

Assay [5] has as its target Phosphatidylinositol 4,5-bisphosphate 3-kinase catalytic subunit alpha isoform (Homo sapiens, UniProt P42336). The assay is described as follows: Selectivity interaction (KinomeScan (DiscoverX)) EUB0000746a PIK3CA. Conditions: at 1 µM.

Chain of D(3) dopamine receptor (P35462 whole entry): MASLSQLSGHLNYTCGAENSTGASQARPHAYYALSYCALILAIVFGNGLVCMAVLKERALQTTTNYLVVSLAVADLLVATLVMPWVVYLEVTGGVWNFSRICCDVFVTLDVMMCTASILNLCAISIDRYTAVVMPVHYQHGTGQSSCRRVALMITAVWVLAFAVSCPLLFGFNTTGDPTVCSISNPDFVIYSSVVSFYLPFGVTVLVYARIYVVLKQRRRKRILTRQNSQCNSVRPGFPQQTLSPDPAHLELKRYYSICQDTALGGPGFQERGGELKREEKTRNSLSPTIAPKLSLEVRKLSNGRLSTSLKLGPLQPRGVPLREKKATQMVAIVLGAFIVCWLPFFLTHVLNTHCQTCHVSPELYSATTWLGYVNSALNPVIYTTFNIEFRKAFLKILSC
Chain of Calcium/calmodulin-dependent protein kinase type 1B (Q6P2M8 whole entry): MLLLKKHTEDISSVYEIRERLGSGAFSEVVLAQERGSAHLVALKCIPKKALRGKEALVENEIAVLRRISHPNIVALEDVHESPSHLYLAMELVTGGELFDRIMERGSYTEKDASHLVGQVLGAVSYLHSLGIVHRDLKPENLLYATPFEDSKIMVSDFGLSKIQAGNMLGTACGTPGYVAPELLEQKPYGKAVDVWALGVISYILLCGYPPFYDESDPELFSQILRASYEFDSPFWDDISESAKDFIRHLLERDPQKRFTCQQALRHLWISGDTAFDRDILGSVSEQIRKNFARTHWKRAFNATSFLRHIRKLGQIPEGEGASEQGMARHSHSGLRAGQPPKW
Chain of Phosphatidylinositol 4,5-bisphosphate 3-kinase catalytic subunit alpha isoform (P42336 whole entry, canonical isoform): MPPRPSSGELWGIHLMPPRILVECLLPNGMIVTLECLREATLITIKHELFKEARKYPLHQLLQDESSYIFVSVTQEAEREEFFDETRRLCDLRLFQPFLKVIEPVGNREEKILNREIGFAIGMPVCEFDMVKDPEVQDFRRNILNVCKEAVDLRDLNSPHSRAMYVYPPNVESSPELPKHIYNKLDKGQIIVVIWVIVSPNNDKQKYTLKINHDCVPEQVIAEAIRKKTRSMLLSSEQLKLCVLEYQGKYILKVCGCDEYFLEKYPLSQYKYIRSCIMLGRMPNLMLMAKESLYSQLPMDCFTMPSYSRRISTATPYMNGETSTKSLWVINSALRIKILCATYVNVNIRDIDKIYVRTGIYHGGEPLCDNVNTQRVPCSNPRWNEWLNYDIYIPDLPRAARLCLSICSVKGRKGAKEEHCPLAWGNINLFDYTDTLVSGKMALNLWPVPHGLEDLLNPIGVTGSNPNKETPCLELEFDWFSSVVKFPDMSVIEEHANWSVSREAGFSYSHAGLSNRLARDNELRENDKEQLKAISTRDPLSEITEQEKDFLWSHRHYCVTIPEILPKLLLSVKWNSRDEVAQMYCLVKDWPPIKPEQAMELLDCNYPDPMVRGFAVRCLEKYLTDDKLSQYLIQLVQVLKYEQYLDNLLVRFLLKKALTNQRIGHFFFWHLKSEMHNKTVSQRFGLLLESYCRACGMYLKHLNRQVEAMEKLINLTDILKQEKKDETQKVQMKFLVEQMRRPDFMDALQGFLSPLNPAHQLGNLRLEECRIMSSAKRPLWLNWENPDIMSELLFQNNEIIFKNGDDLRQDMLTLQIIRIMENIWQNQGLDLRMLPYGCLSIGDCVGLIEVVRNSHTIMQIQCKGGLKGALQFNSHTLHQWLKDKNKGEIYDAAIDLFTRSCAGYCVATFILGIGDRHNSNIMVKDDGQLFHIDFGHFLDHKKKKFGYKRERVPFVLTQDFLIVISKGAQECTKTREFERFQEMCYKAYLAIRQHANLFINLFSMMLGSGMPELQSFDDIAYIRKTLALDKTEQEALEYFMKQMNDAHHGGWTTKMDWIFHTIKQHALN

In the case of `O=C(NS(=O)(=O)c1ccc(NCC2CCOCC2)c([N+](=O)[O-])c1)c1ccc(N2CCN(Cc3ccc(C(F)(F)F)cc3-c3ccc(Cl)cc3)CC2)cc1Oc1cnc2[nH]ccc2c1` [A-1210227], the Ki in assay [1] and in assay [2] was greater than 10 µM each time. The % of control turned out to be 0% in assay [3], 50% in assay [4] and 50% in assay [5].

Values taken from ChEMBL document CHEMBL5212743, “Selectivity Literature for EUbOPEN Chemogenomics Library wave 3” (2023).
